Measured values published in ChEMBL document CHEMBL5727660, “Compounds for the treatment of pain” (2020).

Target: Mu-type opioid receptor (Homo sapiens, UniProt P35372)
Assay: Competitive Displacement Assay: Membrane protein from CHO (Chinese Hamster Ovarian) cells that stably expressed one type of the cloned human opioid receptor were incubated with 12 different concentrations of the compound in the presence of 0.25 nM [3H]DAMGO, 0.2 nM [3H]naltrindole or 1 nM [3H]U69,593 in a final volume of 1 mL of 50 mM Tris-HCl, pH 7.5 at 25° C. Incubation times of 60 min were used for [3H]DAMGO and [3H]U69,593. Because of a slower association of [3H]naltrindole with the receptor, a 3 h incubation was used with this radioligand. Samples incubated with [3H]naltrindole also contained 10 mM MgCl2 and 0.5 mM phenylmethylsulfonyl fluoride. Nonspecific binding was measured by inclusion of 10 μM naloxone. The binding was terminated by filtering the samples through Schleicher & Schuell No. 32 glass fiber filters using a Brandel 48-well cell harvester. The filters were subsequently washed three times with 3 mL of cold 50 mM Tris-HCl, pH 7.5, and were counted in 2 mL Ecoscint A scintillation fluid. For [3H]naltrindole and [3H]U69,593 binding, the filters were soaked in 0.1% polyethylenimine for at least 60 min before use.

Sequence of Mu-type opioid receptor (P35372 whole entry): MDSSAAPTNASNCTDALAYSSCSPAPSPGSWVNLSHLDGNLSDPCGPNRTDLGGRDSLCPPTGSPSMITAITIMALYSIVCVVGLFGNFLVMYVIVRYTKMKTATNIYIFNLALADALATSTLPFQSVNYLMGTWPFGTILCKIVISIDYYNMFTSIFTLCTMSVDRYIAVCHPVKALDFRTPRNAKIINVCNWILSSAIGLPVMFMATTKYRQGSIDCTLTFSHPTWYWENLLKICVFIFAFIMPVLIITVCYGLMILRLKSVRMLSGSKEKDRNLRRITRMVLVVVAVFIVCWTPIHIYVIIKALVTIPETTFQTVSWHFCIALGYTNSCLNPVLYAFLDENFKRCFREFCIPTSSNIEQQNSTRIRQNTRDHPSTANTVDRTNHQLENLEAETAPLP

`COC1(c2ccnc(C(N)=O)c2)C2CCCC1CN(Cc1cc3ccccc3[nH]1)C2` (stereo unspecified) showed a Ki of less than 1 nM.
